“And” between values parts separate entries of the source, which are not always exact repeats. Equal entries are not always repeated. Toxic doses and inconclusive results are not listed.
Tested on: BDF1 mice, P388 leukemia ip, median survival T/C
Test: NCI In Vivo Anticancer Drug Screen. Data for tumor model P388 Leukemia (intraperitoneal) in B6D2F1 (BDF1) mice
Details: endpoint: median survival time, higher = longer survival
Summary of the method: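 Survival ratio, drug arm over vehicle arm, in mice with a transplanted tumour.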

[1] = dose: 12.5 mg/kg/injection, schedule: Q01DX009 (ip), vehicle: saline
[2] = dose: 100.0 mg/kg/injection, schedule: Q04DX003 (ip), vehicle: Klucel (hydroxypropylcellulose) (HPC)
[3] = dose: 200.0 mg/kg/injection, schedule: Q04DX003 (ip), vehicle: Klucel (hydroxypropylcellulose) (HPC)
[4] = dose: 400.0 mg/kg/injection, schedule: Q04DX003 (ip), vehicle: Klucel (hydroxypropylcellulose) (HPC)
[5] = dose: 50.0 mg/kg/injection, schedule: Q01DX009 (ip), vehicle: saline with Tween-80

`CC(=N\[O-])/C(C)=N/O.CC(=N\[O-])/C(C)=N/O.CCCN.[Cl-].[Cl-].[Rh+3]` was tested, and the T/C (dose: 6.25 mg/kg/injection, schedule: Q01DX009 (ip), vehicle: saline) was 98 % of control, the T/C [1] was 110 % of control and the T/C (dose: 50.0 mg/kg/injection, schedule: Q01DX009 (ip), vehicle: saline) was 89 % of control. The T/C (dose: 100.0 mg/kg/injection, schedule: Q01DX009 (ip), vehicle: saline) was 94 % of control and the T/C (dose: 200.0 mg/kg/injection, schedule: Q01DX009 (ip), vehicle: saline) was 110 % of control.
For `CCCCCCCCCCCCCCCCSCCCCCCCCCCCSCCCCCCCCCCCCCCCC`, the T/C (dose: 25.0 mg/kg/injection, schedule: Q01DX001 (ip), vehicle: saline sonified) was 90 % of control and the T/C (dose: 50.0 mg/kg/injection, schedule: Q01DX001 (ip), vehicle: saline sonified) was 90 % of control.
For `CC(=O)/C=C/c1ccc2c(c1)OCO2`, the T/C (dose: 25.0 mg/kg/injection, schedule: Q04DX003 (ip), vehicle: saline) was 105 % of control, the T/C (dose: 50.0 mg/kg/injection, schedule: Q04DX003 (ip), vehicle: saline) was 103 % of control and the T/C (dose: 100.0 mg/kg/injection, schedule: Q04DX003 (ip), vehicle: saline) was 102 % of control and 114 % of control. The T/C (dose: 200.0 mg/kg/injection, schedule: Q04DX003 (ip), vehicle: saline) was 100 % of control and 108 % of control and 122 % of control, the T/C (dose: 300.0 mg/kg/injection, schedule: Q04DX003 (ip), vehicle: saline) was 100 % of control and 103 % of control and the T/C (dose: 400.0 mg/kg/injection, schedule: Q04DX003 (ip), vehicle: saline) was 91 % of control and 94 % of control. For the same compound, the T/C (dose: 500.0 mg/kg/injection, schedule: Q04DX003 (ip), vehicle: saline) was 106 % of control and 109 % of control.
`COc1ccc(OC)c([N+](=O)[O-])c1` was tested, and the T/C [2] was 100 % of control, the T/C (dose: 200.0 mg/kg/injection, schedule: Q01DX009 (ip), vehicle: Klucel (hydroxypropylcellulose) (HPC)) was 95 % of control and the T/C [3] was 95 % of control. For the same compound, the T/C (dose: 400.0 mg/kg/injection, schedule: Q01DX009 (ip), vehicle: Klucel (hydroxypropylcellulose) (HPC)) was 90 % of control and the T/C [4] was 100 % of control.
In the case of `CCOC(=O)/C(C#N)=C/N=c1ncccn1C`, the T/C (dose: 100.0 mg/kg/injection, schedule: Q04DX003 (ip), vehicle: saline with Tween-80) is reported as 98 % of control, the T/C (dose: 200.0 mg/kg/injection, schedule: Q04DX003 (ip), vehicle: saline with Tween-80) is reported as 93 % of control and the T/C (dose: 400.0 mg/kg/injection, schedule: Q04DX003 (ip), vehicle: saline with Tween-80) is reported as 102 % of control.
For `Nc1nnc[se]1`, the T/C (dose: 12.5 mg/kg/injection, schedule: Q01DX009 (ip), vehicle: saline with Tween-80) was 116 % of control, the T/C [1] was 96 % of control and the T/C (dose: 25.0 mg/kg/injection, schedule: Q01DX009 (ip), vehicle: saline with Tween-80) was 151 % of control. The T/C (dose: 25.0 mg/kg/injection, schedule: Q01DX009 (ip), vehicle: saline) was 122 % of control and the T/C [5] was 164 % of control and 178 % of control.
In the case of `O=C(O)C1C2C=CC(C2)C1C(F)(F)C(F)(F)C(F)(F)F` (stereo not drawn), the T/C (dose: 100.0 mg/kg/injection, schedule: Q01DX001 (ip), vehicle: saline with Tween-80) is reported as 100 % of control, the T/C (dose: 200.0 mg/kg/injection, schedule: Q01DX001 (ip), vehicle: saline with Tween-80) is reported as 104 % of control and the T/C (dose: 400.0 mg/kg/injection, schedule: Q01DX001 (ip), vehicle: saline with Tween-80) is reported as 118 % of control.
In the case of `CCNc1c([N+](=O)[O-])cc(S(=O)(=O)O)cc1[N+](=O)[O-]`, the T/C (dose: 50.0 mg/kg/injection, schedule: Q04DX003 (ip), vehicle: saline sonified) is reported as 100 % of control, the T/C (dose: 100.0 mg/kg/injection, schedule: Q04DX003 (ip), vehicle: saline sonified) is reported as 104 % of control and the T/C (dose: 200.0 mg/kg/injection, schedule: Q04DX003 (ip), vehicle: saline sonified) is reported as 104 % of control.
For `CN(C)c1ccc(C2N(Cc3ccccc3)CCC3CCCCN32)cc1` (stereo not drawn), the T/C [5] was 99 % of control and the T/C (dose: 100.0 mg/kg/injection, schedule: Q01DX009 (ip), vehicle: saline with Tween-80) was 92 % of control.
With `CCCCCCCCCCCCCCCCCCCC/C=C/C1CC(=O)OC1=O` (stereo not drawn) the T/C (dose: 75.0 mg/kg/injection, schedule: Q01DX009 (ip), vehicle: Klucel (hydroxypropylcellulose) (HPC)) was 95 % of control, the T/C [2] was 100 % of control and the T/C (dose: 150.0 mg/kg/injection, schedule: Q01DX009 (ip), vehicle: Klucel (hydroxypropylcellulose) (HPC)) was 95 % of control. The T/C [3] was 87 % of control, the T/C (dose: 300.0 mg/kg/injection, schedule: Q01DX009 (ip), vehicle: Klucel (hydroxypropylcellulose) (HPC)) was 86 % of control and the T/C [4] was 87 % of control.
With `c1ccc(-c2nc3ccccc3nc2-c2ccc(-c3ccc(-c4nc5ccccc5nc4-c4ccccc4)cc3)cc2)cc1` the T/C [5] was 88 % of control and the T/C (dose: 200.0 mg/kg/injection, schedule: Q01DX009 (ip), vehicle: saline with Tween-80) was 88 % of control.

Source: PubChem BioAssay AID328 (DTP/NCI, 2004)
